One data set concerns the target T1, MMP 1 (Homo sapiens, UniProt P03956).
T1 construct: human recombinant fibroblast collagenase (truncated mw=18,828, WAR, Radnor)
T1 sequence (P03956 100-269 limits assumed): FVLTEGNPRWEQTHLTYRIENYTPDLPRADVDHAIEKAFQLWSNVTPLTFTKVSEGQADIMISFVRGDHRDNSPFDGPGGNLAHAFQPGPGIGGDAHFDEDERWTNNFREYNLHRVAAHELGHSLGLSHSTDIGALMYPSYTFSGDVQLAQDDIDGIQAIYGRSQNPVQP
Kind of data set: In Vitro Collagenase Assay (human recombinant fibroblast collagenase, fluorogenic peptide substrate). The data set is classed as biochemical. The settings on record: for IC50: read-out: MMP 1 IC 50. As for the experimental part:
The assay is based on the cleavage of a peptide substrate ((Dnp-Pro-Cha-Gly-Cys(Me)-His-Ala-Lys(NMa)-NH2), Peptide International Inc.) by collagenase releasing the fluorescent NMa group which is quantitated on the fluorometer. Dnp quenches the NMa fluorescence in the intact substrate. […] Substrate is dissolved in methanol and stored frozen in 1 mM aliquots. […] For the assay, substrate is dissolved in HCBC buffer to a final concentration of 10 μM and collagenase to a final concentration of 5 nM. Compounds are dissolved in methanol, DMSO, or HCBC. The methanol and DMSO are diluted in HCBC to <1.0%. Compounds are added to the 96 well plate containing enzyme and the reaction is started by the addition of substrate.
The slope of the line is calculated and represents the reaction rate.
The mean (x±sem) of the control rate is calculated and compared for statistical significance (p<0.05) with drug-related rates using Dunnett's multiple comparison test.

The target in a further data set is T2, MMP 9 (Homo sapiens, UniProt P14780).
T2 construct: from tissue; host or cells: human neutrophils
T2 sequence (P14780 94-707): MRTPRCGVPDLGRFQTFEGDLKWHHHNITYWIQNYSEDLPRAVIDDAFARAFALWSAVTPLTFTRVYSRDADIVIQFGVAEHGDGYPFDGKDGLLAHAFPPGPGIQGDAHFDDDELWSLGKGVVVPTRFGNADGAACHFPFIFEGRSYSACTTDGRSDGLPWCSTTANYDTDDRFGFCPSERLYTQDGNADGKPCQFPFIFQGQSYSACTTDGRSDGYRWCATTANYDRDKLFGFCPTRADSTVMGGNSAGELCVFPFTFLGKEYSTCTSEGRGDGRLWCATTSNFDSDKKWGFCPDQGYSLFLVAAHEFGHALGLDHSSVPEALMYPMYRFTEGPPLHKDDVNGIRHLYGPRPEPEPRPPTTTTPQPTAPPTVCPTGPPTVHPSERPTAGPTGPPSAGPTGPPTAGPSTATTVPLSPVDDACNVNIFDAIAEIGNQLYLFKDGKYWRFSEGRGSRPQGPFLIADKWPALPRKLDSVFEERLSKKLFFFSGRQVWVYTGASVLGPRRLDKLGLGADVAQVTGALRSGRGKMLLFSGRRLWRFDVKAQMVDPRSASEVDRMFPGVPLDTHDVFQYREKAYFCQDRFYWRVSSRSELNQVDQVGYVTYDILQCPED
Put plainly: In Vitro Gelatinase Assay (human neutrophil gelatinase B, thiopeptide substrate/DTNB). The data set is classed as biochemical. As for the experimental part:
The assay is based on the cleavage of the thiopeptide substrate ((Ac-Pro-Leu-Gly(2 Mercapto-4 methyl-pentanoyl)-Leu-Gly-OEt), Bachem Bioscience) by the enzyme, gelatinase, releasing the substrate product which reacts colorimetrically with DTNB ((5,5′-dithio-bis(2-nitro-benzoic acid)). The enzyne activity is measured by the rate of the color increase. The thiopeptide substrate is made up fresh as a 20 mM stock in 100% DMSO and the DTNB is dissolved in 100% DMSO as a 100 mM stock and stored in dark at room temperature. Both the substrate and DTNB are diluted together to 1 mM with substrate buffer (50 mM HEPES pH 7.5, 5 mM CaCl2) before use.
The increase in OD405 is plotted and the slope of the line is calculated which represents the reaction rate.
The mean (x±sem) of the control rate is calculated and compared for statistical significance (p<0.05) with drug-treated rates using Dunnett's multiple comparison test.

For the next data set, the target named is T3, TACE (Homo sapiens, UniProt P78536).
T3 construct: purchased Immunex
T3 sequence (P78536 215-824): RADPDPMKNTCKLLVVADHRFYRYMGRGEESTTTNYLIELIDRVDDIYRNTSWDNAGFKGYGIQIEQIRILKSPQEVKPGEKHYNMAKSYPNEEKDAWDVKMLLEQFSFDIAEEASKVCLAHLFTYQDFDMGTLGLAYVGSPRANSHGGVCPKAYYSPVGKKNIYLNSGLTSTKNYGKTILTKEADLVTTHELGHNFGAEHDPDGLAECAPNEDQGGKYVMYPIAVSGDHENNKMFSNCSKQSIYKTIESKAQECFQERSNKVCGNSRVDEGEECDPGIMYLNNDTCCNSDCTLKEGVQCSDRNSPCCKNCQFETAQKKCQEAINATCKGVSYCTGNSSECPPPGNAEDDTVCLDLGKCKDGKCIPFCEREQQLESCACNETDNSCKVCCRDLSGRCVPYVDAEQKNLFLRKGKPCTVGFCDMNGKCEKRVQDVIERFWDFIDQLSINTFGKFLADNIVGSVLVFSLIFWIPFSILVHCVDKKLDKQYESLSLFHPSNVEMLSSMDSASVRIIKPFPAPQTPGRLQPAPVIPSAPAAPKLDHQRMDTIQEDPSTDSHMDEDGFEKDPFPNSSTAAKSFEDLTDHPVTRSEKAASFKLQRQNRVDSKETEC
Put plainly: Procedure for Measuring TACE Inhibition (fluorescent peptidyl substrate). The data set is classed as biochemical. The settings on record: for IC50: read-out: TACE IC 50; for inhibition at 1 µM: read-out: TACE % inhibition at 1 micromolar. As to the method: Using 96-well black microtiter plates, each well recieves a solution composed of 10 μL TACE (Immunex, final concentration 1 μg/mL), 70 μL Tris buffer, pH 7.4 containing 10% glycerol (final concentration 10 mM), and 10 μL of test compound solution in DMSO (final concentration, DMSO concentration <1%) and incubated for 10 minutes at room temperature. The reaction is initiated by addition of a fluorescent peptidyl substrate (final concentration 100 μM) to each well and then shaking on a shaker for 5 sec. The reaction is read (excitation 340 nm, emission 420 nm) for 10 min. and the increase in fluorescence over time is plotted as a linear line. The slope of the line is calculated and represents the reaction rate. […] The mean (x±sem) of the control rate is calculated and compared for statistical significance (p<0.05) with drug-treated rates using Dunnett's multiple comparison test.

The target of data set [1] is T4, MMP 13 (Homo sapiens, UniProt P45452). Put plainly: MMP 13 inhibition (standard/manual test). The data set is classed as biochemical.
Data set [2] deals with T4, MMP 13. Kind of data set: MMP 13 inhibition (HTS). The settings on record: read-out: MMP 13 % inhibition at 0.2 μM (HTS), 0.2 μM. The data set is classed as biochemical.

Read-outs that look alike come from different tables or passages of the source.

By melting point is commonly meant the temperature of the solid-liquid transition. As a reminder, the inhibition is the drop in the measured response relative to a control, in per cent.

Turning to `COc1ccc(S(=O)(=O)C2(C(=O)NO)CCN(Cc3ccc(-c4ccccc4)cc3)CC2)cc1` [Example 88, 1-Biphenyl-4-ylmethyl-4-(4-methoxy-benzenesulfonyl)-piperidine-4-carboxylic acid hydroxamide], the IC50 on MMP 1 came to 1330 nM; at MMP 9 (read-out: MMP 9 IC 50) it was 12.8 nM.
For the molecule `CCCCCCC(Sc1ccc(OC)cc1)C(=O)NO` (stereo not drawn) [Example 37, 2-(4-Methoxy-benzenesulfanyl)-octanoic acid hydroxyamide], the “MMP 1 % inhibition at 1 micromolar” value at MMP 1 is 9%. In addition, on MMP 9, the “MMP 9 % inhibition at 1 micromolar” value worked out at 31.6%. In addition, the IC50 on TACE came out at 87 nM. In addition, the “MMP 13 % inhibition at 1 micromolar” value on MMP 13 [1] is given as 14.3%.
Regarding `CCOc1ccc(S(=O)(=O)C(C)(Cc2ccc(OCCN(CC)CC)cc2)C(=O)NO)cc1` (stereo not drawn) [Example 25, N-Hydroxy-2-(4-ethoxy-benzenesulfonyl)-2-methyl-3-[4-(2-N,N-diethylamino-ethoxy)-phenyl]-propionamide], the IC50 at MMP 9 (read-out: MMP 9 IC 50) amounted to 26.7 nM; on MMP 13 [1] (read-out: MMP 13 IC 50), 8 nM.
Consider `CC(C(=O)O)S(=O)(=O)CCCCCCCCS(=O)(=O)C(C)C(=O)NO` (stereo not drawn) [Example 49, 2-[8-(1-carboxy-ethanesfonyl)-octane-1-sulfonyl]-propionic acid hydroxyamide], for which the “MMP 1 % inhibition at 1 micromolar” value at MMP 1 is given as 10.1%. Also, the “MMP 9 % inhibition at 1 micromolar” value on MMP 9 is 23.7%. The “MMP 13 % inhibition at 1 micromolar” value on MMP 13 [1] is recorded as 54.6%.
As for `CCN(CC)CCOc1cccc(CC(C)(C(=O)NO)S(=O)(=O)c2ccc(OC)cc2)c1` (stereo not drawn) [Example 29, N-Hydroxy-2-(4-methoxy-benzenesulfonyl)-2-methyl-3-[3-(2-N,N-diethylamino-ethoxy)-phenyl]-propionamide], the IC50 stood at 297 nM at MMP 1, 4.3 nM at MMP 9 (read-out: MMP 9 IC 50) and 3.6 nM on MMP 13 [1] (read-out: MMP 13 IC 50). Also, on TACE, the “TACE % inhibition at 1 micromolar” value is on record as 41%.
The molecule `COc1ccc(S(=O)(=O)C2(C(=O)NO)CCN(Cc3ccc4ccccc4c3)CC2)cc1` [Example 87, 4-(4methoxy-benzene-sulfonyl)-1-napthalene-2-yl-methylpiperidine-4-carboxylic acid hydroxamide] displayed a melting point of 168 to 170 °C. Besides, the IC50 at MMP 1 amounted to 368 nM. The IC50 at MMP 9 (read-out: MMP 9 IC 50) worked out at 5 nM.
`CC(=O)Nc1ccc(SC(Cc2ccccc2)C(=O)NO)cc1` (stereo not drawn) [Example 128, 2-(4-Acetylamino-benzenesulfanyl)-N-hydroxy-3-phenyl-propionamide]: the IC50 on MMP 9 (solid phase compounds table, read-out: MMP 9) came to 213 nM; against MMP 13 [1] (manual, nM), 255 nM. Also, the inhibition at 0.2 µM on MMP 13 [2] stood at 91%.
`CC(Cc1ccccc1)(C(=O)NO)S(=O)(=O)c1cccs1` (stereo not drawn) [Example 48, 2-Methyl-3-phenyl-2-(thiophene-2-sulfonyl)-propionic acid hydroxamide]: on MMP 1, the “MMP 1 % inhibition at 1 micromolar” value was 99.1%. Besides, the “MMP 9 % inhibition at 1 micromolar” value at MMP 9 is 79.1%. The “TACE % inhibition at 1 micromolar” value on TACE worked out at 51.1%.
As for `Cc1occc1S(=O)(=O)C(C)(Cc1ccccc1)C(=O)NO` (stereo not drawn) [Example 43, 2-Methyl-2-(2-methyl-furan-3-sulfonyl)-3-phenyl-propionic acid hydroxamide], at MMP 1, the “MMP 1 % inhibition at 1 micromolar” value is listed as 66.1%. For the same molecule, the “MMP 9 % inhibition at 1 micromolar” value at MMP 9 was found to be 34.7%. Moreover, the “TACE % inhibition at 1 micromolar” value on TACE was found to be 46.6%. Moreover, on MMP 13 [1], the “MMP 13 % inhibition at 1 micromolar” value came to 55.5%.
On to `CCN(CC)CCOc1ccc(CC(C)(C(=O)NO)S(=O)(=O)c2ccc(OC)cc2)cc1` (stereo not drawn) [Example 21, N-Hydroxy-2-(4-methoxy-benzenesulfonyl)-2-methyl-3-[4-(2-N,N-diethylamino-ethoxy)-phenyl]-propionamide], for which the IC50 stood at 318 nM on MMP 1, 13.2 nM on MMP 9 (read-out: MMP 9 IC 50) and 15.3 nM at MMP 13 [1] (read-out: MMP 13 IC 50). Also, the inhibition at 1 µM on TACE worked out at 39%.
With `Cc1occc1S(=O)(=O)C(C)(Cc1ccc(OCCN2CCCCC2)cc1)C(=O)NO` (stereo not drawn) [Example 44, 2-Methyl-2-(2-methyl-furan-3-sulfonyl)3-[4-(2-piperidin-1-yl-ethoxy)phenyl]-propionic acid hydroxamide], on MMP 1, the “MMP 1 % inhibition at 1 micromolar” value is given as 47.1%. Besides, the “MMP 9 % inhibition at 1 micromolar” value on MMP 9 is listed as 36.9%. In addition, the “TACE % inhibition at 1 micromolar” value on TACE was determined as 14.9%. Also, the “MMP 13 % inhibition at 1 micromolar” value on MMP 13 [1] was 39.5%.
`COc1ccc([S+]([O-])C(C(=O)NO)c2ccccc2)cc1` (stereo not drawn) [Example 8, N-Hydroxy-2-(4-methoxy-benzenesulfinyl)-2-phenyl-acetamide]: the melting point is 135 °C. Also, the IC50 at MMP 9 (read-out: MMP 9 IC 50) was found to be 346 nM. The IC50 on MMP 13 [1] (read-out: MMP 13 IC 50) stood at 308 nM.
For `COc1ccc(S(=O)(=O)C2(C(=O)NO)CCN(CC=C(C)C)CC2)cc1` [Example 89, 4-(4methoxy-benzene-sulfonyl)-1-(3-methyl-but-2-enyl)-piperdine-4-carboxylic acid hydroxamide], the IC50 turned out to be 1390 nM on MMP 1, 38.6 nM on MMP 9 (read-out: MMP 9 IC 50) and 7 nM on MMP 13 [1] (read-out: MMP 13 IC 50). Also, the “TACE % inhibition at 1 micromolar” value on TACE is listed as 49%.
Regarding `CCCC(Cc1ccc(OCCN2CCOCC2)cc1)(C(=O)NO)S(=O)(=O)c1ccc(OC)cc1` (stereo not drawn) [Example 35, 2-(4-Methoxy-benzenesulfonyl)-2-[4-(2-morpholin4yl-oxy)-benzyl]-pentanoic acid hydroxyamide], the IC50 on MMP 1 came out at 456 nM; at MMP 9 (read-out: MMP 9 IC 50), 234 nM; on MMP 13 [1] (read-out: MMP 13 IC 50) it was 48.2 nM.
On to `COc1ccc(S(=O)(=O)C(C)(CC=C(C)C)C(=O)NO)cc1` (stereo not drawn) [Example 13, 2-(4-Methoxy-benzenesulfonyl)-2-dimethyl-hex-4-enoic acid hydroxyamide], for which the IC50 at MMP 1 worked out at 239 nM; at MMP 9 (read-out: MMP 9 IC 50), 11 nM; at TACE, 626 nM; at MMP 13 [1] (read-out: MMP 13 IC 50), 14 nM.
Regarding `CC(Cc1ccc(OCCN2CCCCC2)cc1)(C(=O)NO)S(=O)(=O)c1ccc(Br)cc1` (stereo not drawn) [Example 50, 2-(4Bromo-benzenesulfonyl)-2-methyl-3-[4-(2-piperdine-1-yl-ethoxy)-phenyl]-propionic acid hydroxanide], the IC50 on MMP 1 stood at 51.1 nM; on MMP 9 (read-out: MMP 9 IC 50), 58.4 nM; at MMP 13 [1] (read-out: MMP 13 IC 50) it was 10.6 nM.
On to `CCCCC[C@H](C(=O)NO)[S@+]([O-])c1ccc(OC)cc1` (relative stereo) [Example 81a, 2R*-(4-methoxyphenyl-S*-sulfinyl)-heptanoic acid hydroxyamide], for which the IC50 on MMP 1 amounted to 2040 nM; on MMP 9 (read-out: MMP 9 IC 50) it was 231 nM; at TACE, 27.1 nM; at MMP 13 [1] (read-out: MMP 13 IC 50), 43.9 nM.
Consider `CC(Cc1ccc(OCCN2CCCCC2)cc1)(C(=O)NO)S(=O)(=O)c1cccs1` (stereo not drawn) [Example 45, 2-Methyl-3-4-(2-piperdin-1-yl-ethoxy)-phenyl-2-(thiophene-2-sulfonyl)-propionic acid hydroxamide], for which, at MMP 1, the “MMP 1 % inhibition at 1 micromolar” value turned out to be 49%. For the same molecule, the “MMP 9 % inhibition at 1 micromolar” value on MMP 9 is recorded as 48.6%. Moreover, the “TACE % inhibition at 1 micromolar” value at TACE was 20.4%.
Regarding `COc1ccc(S(=O)(=O)C(C)(Cc2ccc(OCCN3CCCCC3)cc2)C(=O)NO)cc1` (stereo not drawn) [Example 17, N-Hydroxy-2-(4-methoxy-benzenesulfonyl)-2-methyl-3-[4-(2-piperidin-1-yl-ethoxy)-phenyl]-proponamide], the IC50 on MMP 1 came out at 239 nM; on MMP 9 (read-out: MMP 9 IC 50), 8.9 nM. The “TACE % inhibition at 1 micromolar” value on TACE is on record as 41.00%.
Molecule `COc1ccc(CS(=O)(=O)C(C)(Cc2ccccc2)C(=O)NO)cc1` (stereo not drawn) [Example 41, N-Hydroxy-2-(4-methoxy-phenylmethanesulfonyl)-2-methyl-3-phenyl propionic acid hydroxamide] showed a melting point of 58 to 59 °C. Moreover, the IC50 at MMP 1 is 100 nM. Also, the inhibition at 1 µM at TACE was 15.5%.

The values are drawn from patent publication US6342508B1, “N-hydroxy-2-(Alkyl,Aryl or Heteroaryl sulfanyl, sulfinyl or sulfonyl) 3-substituted alkyl, aryl or heteroarylamides as matrix metalloproteinase inhibitors” (American Cyanamid Company, priority 1997, dated 2002).
